Experimental data published in US9968649B2, “Vasopressin formulations for use in treatment of hypotension” (Par Pharmaceutical, Inc., priority 2015, dated 2018).
“And” between values parts separate entries of the source, which are not always exact repeats. Identical values can stand only once.

Assay: Effect of temperature on vasopressin formulations: HPLC vasopressin assay and impurities on storage (Example 8)
Type: physicochemical
Description: To analyze degradation products of vasopressin that can be present in an illustrative formulation of vasopressin, gradient HPLC was performed to separate vasopressin from related peptides and formulation components. TABLE 2 below depicts the results of the experiment detailing the chemical formula, relative retention time (RRT), molar mass, and structure of vasopressin and detected impurities.
Vasopressin was detected in the eluent using UV absorbance. The concentration of vasopressin in the sample was determined by the external standard method, where the peak area of vasopressin in sample injections was compared to the peak area of vasopressin reference standards in a solution of known concentration. The concentrations of related peptide impurities in the sample were also determined using the external standard method, using the vasopressin reference standard peak area and a unit relative response factor. An impurities marker solution was used to determine the relative retention times of identified related peptides at the time of analysis.
To test the effect of temperature on the stability of vasopressin formulation, solutions containing 20 units/mL vasopressin and chlorobutanol, adjusted to pH 3.5 with acetic acid, were prepared. One mL of each vasopressin formulations was then filled into 3 cc vials. Each Vasopressin Formulation was stored either inverted or upright for at least three months, up to 24 months, at: (i) 5° C.; (ii) 25° C. and 60% relative humidity; or (iii) 40° C. and 75% humidity, and the amount of vasopressin (U/mL) and % total impurities were measured periodically. TABLES 7-12 below display the results of the experiments at 5° C. The results of the experiments at 25° C. are included in TABLES 13-18. All of the experiments were performed in triplicate. The results of the experiments at 40° C. are included in TABLES 19-24. For each temperature tested, three lots of the vasopressin formulation were stored for 24 months (5° C. and 25° C.) and 3 months (40° C.), and measurements were taken at regular intervals during the testing periods. “NMT” as used in the tables denotes “not more than.”
Experiments were also conducted on the same samples above over the course of the experiments to measure the amount of individual impurities in the samples, pH of the samples, chlorobutanol content, particulate matter, antimicrobial effectiveness, and bacterial endotoxin levels (TABLES 25-42). (NR=no reading; ND=not determined; UI=unidentified impurity).

[1] = inverted, 5° C., Initial, listed as AVP
[2] = inverted, 25° C. and 60% Relative Humidity, 3 months, listed as AVP
[3] = inverted, 25° C. and 60% Relative Humidity, 6 months, listed as AVP
[4] = inverted, 25° C. and 60% Relative Humidity, 9 months, listed as AVP
[5] = inverted, 25° C. and 60% Relative Humidity, 12 months, listed as AVP
[6] = inverted, 25° C. and 60% Relative Humidity, 24 months, listed as AVP
[7] = inverted, 25° C. and 60% Relative Humidity, Initial, listed as AVP
[8] = inverted, 40° C. (75% humidity), 1 month
[9] = inverted, 40° C. (75% humidity), 2 months
[10] = inverted, 40° C. (75% humidity), 3 months
[11] = inverted, 40° C. (75% humidity), Initial
[12] = upright, 5° C., 1 month, listed as AVP
[13] = upright, 5° C., 2 months, listed as AVP
[14] = upright, 5° C., 3 months, listed as AVP
[15] = upright, 5° C., 6 months, listed as AVP
[16] = upright, 5° C., 9 months, listed as AVP
[17] = upright, 5° C., 12 months, listed as AVP
[18] = upright, 5° C., 18 months, listed as AVP
[19] = upright, 5° C., 24 months, listed as AVP
[20] = upright, 5° C., Initial, listed as AVP
[21] = upright, 25° C. and 60% Relative Humidity, 3 months, listed as AVP
[22] = upright, 25° C. and 60% Relative Humidity, 6 months, listed as AVP
[23] = upright, 25° C. and 60% Relative Humidity, 9 months, listed as AVP
[24] = upright, 25° C. and 60% Relative Humidity, 12 months, listed as AVP
[25] = upright, 25° C. and 60% Relative Humidity, 18 months, listed as AVP
[26] = upright, 25° C. and 60% Relative Humidity, 24 months, listed as AVP
[27] = upright, 25° C. and 60% Relative Humidity, Initial, listed as AVP

Compound: NC(=O)CC[C@@H]1NC(=O)[C@H](Cc2ccccc2)NC(=O)[C@H](Cc2ccc(O)cc2)NC(=O)[C@@H](N)CSSC[C@@H](C(=O)N2CCC[C@H]2C(=O)N[C@@H](CCCN=C(N)N)C(=O)NCC(N)=O)NC(=O)[C@H](CC(N)=O)NC1=O [Vasopressin, Cyclo (1-6) L-Cysteinyl-L-Tyrosyl-L-Phenylalanyl-L-Glutaminyl-L-Asparaginyl-L-Cysteinyl-L-Prolyl-L-Arginyl-L-Glycinamide]
- Related Substances: Acetyl-AVP (inverted, 5° C., Initial): 0.3%
- Related Substances: Asp5-AVP (inverted, 5° C., Initial): 0.1%
- Related Substances: SEQ ID NO.: 2 (inverted, 5° C., Initial): 0.5% and 0.6%
- Related Substances: SEQ ID NO.: 4 (inverted, 5° C., Initial): 0.6% and 0.5%
- Related Substances: SEQ ID NO.: 10 (inverted, 5° C., Initial): 0.3%
- Related Substances: UI-0.75-0.78 (inverted, 5° C., Initial): 0.2%
- Related Substances: UI-0.83-0.84 (inverted, 5° C., Initial): 0.1%
- Related Substances: UI-1.02-1.03 (inverted, 5° C., Initial): 0.2%
- Related Substances: UI-1.03 (inverted, 5° C., Initial): 0.2%
- Related Substances: UI-1.85 (inverted, 5° C., Initial): 0.2%
- Related Substances: UI-2.05 (inverted, 5° C., Initial): 0.1% and 0.2%
- Vasopressin (AVP) Assay (inverted, 5° C., Initial): 19.4 U/mL and 19.7 U/mL
- Total Impurities [1]: 2.3% and 2.7% and 2.2%
- Vasopressin (AVP) Assay [1]: 19.4 U/mL and 19.7 U/mL
- AVP Assay [2]: 19.4 U/mL and 19.7 U/mL and 19.6 U/mL
- Total Impurities [2]: 2.4% and 2.5% and 2.6%
- AVP Assay [3]: 19.1 U/mL and 19.3 U/mL and 19.2 U/mL
- Total Impurities [3]: 3.7% and 3.4% and 3.3%
- AVP Assay [4]: 18.8 U/mL and 19 U/mL
- Total Impurities [4]: 4.7% and 4.6%
- AVP Assay [5]: 18.3 U/mL and 18.6 U/mL and 18.7 U/mL
- Total Impurities [5]: 5.9% and 5.6%
- Total Impurities (inverted, 25° C. and 60% Relative Humidity, 18 months): 9.0%
- AVP Assay (inverted, 25° C. and 60% Relative Humidity, 18 months, listed as AVP): 17.5 U/mL and 17.6 U/mL and 18 U/mL
- AVP Assay [6]: 17.3 U/mL and 17.6 U/mL and 17.4 U/mL
- Total Impurities [6]: 13.6% and 13.4% and 12.9%
- AVP Assay [7]: 19.8 U/mL and 20.1 U/mL and 19.9 U/mL
- Total Impurities [7]: 1.1% and 1.3% and 1.5%
- Total Impurities [8]: 3.7% and 3.6%
- Vasopressin Assay [8]: 19.1 U/mL and 19.3 U/mL and 19.2 U/mL
- Total Impurities [9]: 7.3%
- Vasopressin Assay [9]: 18.6 U/mL and 18.7 U/mL and 18.3 U/mL
- Total Impurities [10]: 10.6% and 10.3%
- Vasopressin Assay [10]: 17.3 U/mL and 17.6 U/mL and 17.4 U/mL
- Total Impurities [11]: 1.1% and 1.3%
- Vasopressin Assay [11]: 19.8 U/mL and 20.1 U/mL and 19.9 U/mL
- Related Substances: Acetyl-AVP (inverted, 40° C., 1 month): 0.2%
- Related Substances: Asp5-AVP (inverted, 40° C., 1 month): 0.2%
- Related Substances: D-Asn-AVP (inverted, 40° C., 1 month): 0.4%
- Related Substances: SEQ ID NO.: 2 (inverted, 40° C., 1 month): 1.0%
- Related Substances: SEQ ID NO.: 4 (inverted, 40° C., 1 month): 1.1%
- Related Substances: UI-0.13 (inverted, 40° C., 1 month): 0.1%
- Related Substances: UI-1.02-1.03 (inverted, 40° C., 1 month): 0.3%
- Related Substances: UI-1.56-1.57 (inverted, 40° C., 1 month): 0.2%
- Related Substances: UI-1.93 (inverted, 40° C., 1 month): 0.1%
- Related Substances: Acetyl-AVP (inverted, 40° C., 2 months): 0.2%
- Related Substances: Asp5-AVP (inverted, 40° C., 2 months): 0.5%
- Related Substances: D-Asn-AVP (inverted, 40° C., 2 months): 0.3%
- Related Substances: SEQ ID NO.: 2 (inverted, 40° C., 2 months): 2.4%
- Related Substances: SEQ ID NO.: 4 (inverted, 40° C., 2 months): 2.7%
- Related Substances: UI-1.02-1.03 (inverted, 40° C., 2 months): 0.2%
- Related Substances: UI-1.56-1.57 (inverted, 40° C., 2 months): 0.4%
- Related Substances: UI-1.83-1.85 (inverted, 40° C., 2 months): 0.2%
- Related Substances: UI-1.87-1.88 (inverted, 40° C., 2 months): 0.2%
- Related Substances: UI-2.05-2.08 (inverted, 40° C., 2 months): 0.2%
- Related Substances: Acetyl-AVP (inverted, 40° C., 3 months): 0.2%
- Related Substances: Asp5-AVP (inverted, 40° C., 3 months): 0.8%
- Related Substances: D-Asn-AVP (inverted, 40° C., 3 months): 0.3%
- Related Substances: SEQ ID NO.: 2 (inverted, 40° C., 3 months): 3.8%
- Related Substances: SEQ ID NO.: 4 (inverted, 40° C., 3 months): 4.3%
- Related Substances: UI-1.02-1.03 (inverted, 40° C., 3 months): 0.3%
- Related Substances: UI-1.18 (inverted, 40° C., 3 months): 0.2%
- Related Substances: UI-1.56-1.57 (inverted, 40° C., 3 months): 0.4%
- Related Substances: UI-1.83-1.85 (inverted, 40° C., 3 months): 0.2%
- Related Substances: UI-1.87-1.88 (inverted, 40° C., 3 months): 0.2%
- Related Substances: Acetyl-AVP (inverted, 40° C., Initial): 0.3%
- Related Substances: D-Asn-AVP (inverted, 40° C., Initial): 0.3%
- Related Substances: SEQ ID NO.: 2 (inverted, 40° C., Initial): 0.1%
- Related Substances: SEQ ID NO.: 4 (inverted, 40° C., Initial): 0.1%
- Related Substances: UI-1.02-1.03 (inverted, 40° C., Initial): 0.2%
- AVP Assay [12]: 19.5 U/mL and 19.7 U/mL
- Total Impurities [12]: 2.1% and 1.8%
- AVP Assay [13]: 19.4 U/mL and 19.6 U/mL
- Total Impurities [13]: 2.1% and 2.2% and 2.0%
- AVP Assay [14]: 19.4 U/mL and 19.7 U/mL
- Total Impurities [14]: 2.3% and 2.2%
- AVP Assay [15]: 19.5 U/mL and 19.8 U/mL
- Total Impurities [15]: 2.1% and 2.2%
- AVP Assay [16]: 19.5 U/mL and 19.7 U/mL
- Total Impurities [16]: 2.3% and 2.1%
- AVP Assay [17]: 19.5 U/mL and 19.8 U/mL and 19.9 U/mL
- Total Impurities [17]: 2.5% and 2.6% and 2.4%
- AVP Assay [18]: 19.4 U/mL and 19.7 U/mL and 19.8 U/mL
- Total Impurities [18]: 2.9% and 2.8%
- AVP Assay [19]: 19.3 U/mL and 19.5 U/mL
- Total Impurities [19]: 2.9% and 2.8% and 2.7%
- AVP Assay [20]: 19.4 U/mL and 19.7 U/mL
- Total Impurities [20]: 2.3% and 2.7% and 2.2%
- AVP Assay [21]: 19.4 U/mL and 19.7 U/mL and 19.6 U/mL
- Total Impurities [21]: 2.4% and 2.5%
- AVP Assay [22]: 19.1 U/mL and 19.4 U/mL and 19.2 U/mL
- Total Impurities [22]: 3.2% and 3.3% and 3.7%
- AVP Assay [23]: 18.8 U/mL and 18.9 U/mL and 19 U/mL
- Total Impurities [23]: 4.8% and 4.5% and 4.7%
- AVP Assay [24]: 18.3 U/mL and 18.6 U/mL and 18.5 U/mL
- Total Impurities [24]: 5.6% and 5.7% and 5.9%
- AVP Assay (upright, 25° C. and 60% Relative Humidity, 18 months): 18.1 U/mL
- AVP Assay [25]: 17.5 U/mL and 17.8 U/mL
- Total Impurities [25]: 9.2% and 9.1%
- Total Impurities (upright, 25° C. and 60% Relative Humidity, 24 months): 13.3%
- AVP Assay [26]: 17.4 U/mL and 17.7 U/mL
- Total Impurities [26]: 13.1%
- AVP Assay [27]: 19.8 U/mL and 20.1 U/mL and 19.9 U/mL
- Total Impurities [27]: 1.1% and 1.3% and 1.5%
